# Data published in patent publication EP0222578A2, “Use of cyclic somatostatin analogues in the treatment of immediate hypersensitivity diseases” (Merck & Co., Inc., priority 1985, dated 1987).
# Key:
# [1] = test system: Antigen-Induced Dyspnea in Inbred Rats; details: 3 µg/kg i.v. before challenge; background statement in the introduction; cited from earlier work
# [2] = test system: Antigen-Induced Dyspnea in Inbred Rats; assay: Antigen-induced dyspnea in sensitized inbred asthmatic rats challenged with aerosolized egg albumin; format: in vivo; details: for Duration of Dyspnea in Minutes (Mean±S.D.) n=6/group: 1 mg/kg s.c. 1 hour before antigen challenge; for Inhibition %: inhibition of duration of dyspnea vs vehicle control, 1 mg/kg s.c. 1 hour
# Source text: Sensitized inbred "asthmatic rats" challenged with aerosolized antigen respond with symptoms of continuous dyspnea which is partly mediated by serotonin. […] These rats differed from normal rats in that they have nonspecific bronchial hyperreactivity to a number of bronchoconstrictor agents (Brunet et al., J. Immun., 131, 434-438 (1983)].
# • (1) Animals: Rats were obtained from an inbred line of asthmatic rats that were developed and maintained in local laboratories and later at a local farm. Male and female rats were used between 10-12 weeks of age. Their weights ranged from 220-240 gm (females) and 350-400 gm (males). Rats were matched by sex and littermates between the various treatment groups. • (2) Materials: Egg albumin (EA), grade V, crystallized and lyophilized (Sigma Chemical Co., St. Louis), aluminum hydroxide (Reheis Chemical Company, Chicago), and methysergide bimaleate (Sandoz Ltd., Basel, Switzerland). • (3) Apparatus: The challenge and subsequent respiratory recordings were carried out in a clear plastic box with internal dimensions 10 x 6 x 4 inches. The top of the box was removable; in use, it was held firmly in place by four clamps and an airtight seal was maintained by a soft rubber gasket. Through the centre of each end of the chamber a Devilbiss nebulizer (No. 40) was inserted via an airtight seal and each end of the box was also equipped with an outlet. A Fleisch No. 0000 pneumotachograph was inserted into one end of the box and coupled to a Grass volumetric pressure transducer (PT5-A) which was then connected to a Beckman Type R Dynograph through appropriate couplers. While aerosolizing the antigen, the outlets were open and the pneumotachograph was isolated from the chamber. The outlets were closed and the pneumotachograph and the chamber were connected during the recordings of the respiratory patterns. For challenge, 2 ml of 3% solution of antigen in saline was placed into each nebulizer and the aerosol was generated with air from a small Potter diaphragm pump operating at 10 psi and a flow of 8 litre/minute. • (4) Procedure: Rats were sensitized by injecting (s.c.) 1 ml of suspension containing 1 mg egg albumin (EA) and 200 mg aluminum hydroxide in saline. They were used on day 13 post sensitization. Rats were exposed to aerosol of 3% EA in saline for exatly 1 minute, then their respiratory profiles were recorded for an additional 30 minutes. The duration of continuous dyspnea was measured from the respiratory recordings.
# Form.I-8) was administered subcutaneously as a solution in 5% mannitol 1 hour prior to challenge with antigen. Methysergide bimaleate was dissolved in saline and given intravenously at dose of 3 ug/kg 5 minutes before challenge. Dose volume employed for subcutaneous treatments was 2 ml/kg and for i.v. treatments 1 ml/kg. Control groups of rats (n-6) were treated subcutaneously with drug vehicle (5% mannitol).
# The sensitivity of various drug treatments were determined in terms of the decrease in duration of dyspnea in comparison with a group of vehicle- treated controls. Comparisons between groups were made using the Student's t-test.
compound,measurement,setting,value
"CC[C@@H](CO)NC(=O)[C@@H]1C=C2c3cccc4c3c(cn4C)C[C@H]2N(C)C1 [methysergide, methysergide bimaleate]",serotonin component of continuous dyspnea,[1],completely blocked
"CC(C)[C@@H]1NC(=O)[C@H](CCCCN)NC(=O)[C@@H](Cc2c[nH]c3ccccc23)NC(=O)[C@H](Cc2ccc(O)cc2)NC(=O)[C@H](C)N(C)C(=O)[C@H](Cc2ccccc2)NC1=O [Form.I-8), Cycle-(N-Me-Ala-Tyr-D-Trp-Lys-Val-Phe)]",Duration of Dyspnea in Minutes (Mean±S.D.) n=6/group,[2]; + Methysergide (3 µg/kg i.v. 5 minutes prior to challenge),5.7 ± 3.9 min
same,Duration of Dyspnea in Minutes (Mean±S.D.) n=6/group,[2]; - Methysergide,18.2 ± 3.6 min
same,activity on duration of antigen-induced dyspnea,"[2]; 1 mg/kg s.c., without methysergide to block the serotonin component",failed to produce activity
same,Inhibition %,"[2]; + Methysergide (3 µg/kg i.v. 5 minutes prior to challenge), p < 0.01",57 p < 0.01%
same,Inhibition %,[2]; + Methysergide (3 µg/kg i.v. 5 minutes prior to challenge); p < 0.01; listed as Form.1-8),57%
same,Inhibition %,[2]; - Methysergide,0%
